Assay results from ChEMBL document CHEMBL1151381, “Aporphine Alkaloids From Annona acuminata” (1982).
≈ marks a conversion by molar mass, not a printed value.

Each compound was assayed on KB (assay: Cytotoxicity against human KB cells). Settings: read-out: ED50 (the source's name).
Format: functional
With `O=C1c2ccccc2-c2c3c(cc4ccnc1c24)OCO3` [LIRIODENINE] the EC50 was 3.1 µg/mL (≈ 11.3 µM). Work on `COc1cc2ccnc3c2c(c1OC)-c1ccccc1C3=O` [LYSICAMINE] yielded an EC50 greater than 10 µg/mL. In the case of `COc1c(OC)c2c3c(nccc3c1OC)C(=O)c1ccccc1-2` [HOMOMOSCHATOLINE], the EC50 was greater than 10 µg/mL.
